Laboratory results: patent publication US4432982A, “Polycyclic compounds substituted on the A-ring, pharmaceutical compositions containing them, and methods of treating psoriasis with them” (Richter Gedeon Vegyeszeti Gyar Rt., priority 1981, dated 1984)
Counter-ions that a name gives are not always drawn.

Tested on: phosphodiesterase isolated from cattle heart
Test: Phosphodiesterase inhibition, radioisotope method with 3H-c-AMP, enzyme isolated from cattle heart
Assay type: biochemical
Conditions: control without inhibitor = 100%, 20 minutes incubation
Procedure: The model experiments were performed by means of phosphodiesterase isolated from animal tissues (rat brain, cattle brain, cattle heart). The enzyme was isolated by the technique of J. Schroder and H. V. Richenberg [Biochem. Biophys. […] The measurement was first carried out without the inhibiting substance and then in the presence of one of the compounds of the general formula (I) as an inhibiting agent, after an incubation period of 20 minutes [N.S. Arch. […] A solution of papaverine used as reference material was added to the enzyme preparate in an analogous manner.
The activity of the solutions containing the compounds of formula (I) and papaverine was expressed in percents of the control (enzyme solution without any inhibitor substance, the activity thereof was taken 100%).

[1] = 1 × 10^-5 mole/lit. test compound, 10 µM
[2] = 5 × 10^-6 mole/lit. test compound, 5 µM
[3] = 5 × 10^-5 mole/lit. test compound, 50 µM

| effect of the test compound on enzyme activity in % of the control [1] [%] | effect of the test compound on enzyme activity in % of the control [2] [%] | effect of the test compound on enzyme activity in % of the control [3] [%] | SMILES |
| --- | --- | --- | --- |
| 61.8 | 67.8 |  | CC[C@@]12C=C(COC(=O)c3cc(OC)c(OC)c(OC)c3)n3c4c(c5cc(Br)ccc53)CCN(CCC1)[C@H]42 [10-Bromo-apovincaminol-3',4',5'-trimethoxy-benzoate] |
| 40.3 | 59.1 | 21.3 | CC[C@@]12C=C(COC(=O)c3cc(OC)c(OC)c(OC)c3)n3c4c(c5cc(OC)ccc53)CCN(CCC1)[C@H]42 [10-Methoxy-apovincaminol-3',4',5'-trimethoxybenzoate] |
| 21.8 | 31.9 | 21.8 | CC[C@@]12C=C(COC(=O)c3cc(OC)c(OC)c(OC)c3)n3c4c(c5ccc(Br)cc53)CCN(CCC1)[C@H]42 [(-)-11-Bromo-apovincaminol-3',4',5'-trimethoxy-benzoate hydrochloride] |

| SMILES | effect of the test compound on enzyme activity in % of the control [1] [%] | effect of the test compound on enzyme activity in % of the control [2] [%] | effect of the test compound on enzyme activity in % of the control [3] [%] |
| --- | --- | --- | --- |
| COc1ccc(Cc2nccc3cc(OC)c(OC)cc23)cc1OC [Papaverine HCl, reference compound] | 82.7 | 91.3 | 43.7 |
